Data from US20210379085A1, “HALOGENATED SALICYLANILIDES FOR TREATING THE SYMPTOMS OF DERMATITIS” (Union Therapeutics A/S, priority 2018, published 2021).

Experiments:
in vivo = settings: dog
[1] = Plasma pharmacokinetics of oxyclozanide after topical Composition K in dogs (Example 5); type: in vivo, dog
Method: The cutaneous route (topical administration) was the route of administration for composition K on dogs. Composition K was applied evenly along the backbone starting from the base of the tail to the back of the neck.
For all animals of group A, a blood sample of around 4 ml was collected from the jugular vein using tubes containing lithium heparin at the following times (with tolerance of 10%): D-3a, D0a+1h, D0a+6h, D0a+12h, D0a+16h, D0a+24h, D0a+32h, D0a+48h, D3a, D5a et D7a.
Centrifugation (around 3500 revolutions/min, for 15 minutes at +4° C.) was performed a maximum of 30 minutes after sampling. The plasma was collected and then divided into two aliquots in tubes (Nunc 1.8 ml type) as follows: • S1 aliquot: around 0.5 ml • S2 aliquot: the remainder of the plasma (more than 0.5 ml)
The pharmacokinetic analysis was performed using Phoenix software (version 6.3, Pharsight, USA). Data points indicated as “missing” were systematically ignored during the calculation and therefore have no effect on the results. A missing status is assigned and no flag symbol is used. Values were excluded if, in the judgement of the pharmacokineticist, they were deemed not to be “[…].” If outliers were suspected, they were identified using the Outlier identification procedure of STATGRAPHICS.

Vd (in vivo; iv, 2.5 mg/kg): ~0.6 L/kg
half-life (in vivo; iv, 2.5 mg/kg): 2280 min
bioavailability (in vivo; po, 5 mg/kg): 48%
AUC(0-inf) (in vivo; topical or ocular, 20 mg/kg): 55700 ng·h/mL
bioavailability (in vivo; topical or ocular, 20 mg/kg): 12%
AUC(0-inf) ([1]; dog, plasma, topical or ocular, topical single 20 mg/kg Composition K, read-out: AUCinf in plasma (first value of the comparison, presumably Example 5)): 60600 ng·h/mL
concentrations of oxyclozanide in plasma after topical administration ([1]; topical 20 mg/kg Composition K): Low concentrations
bioavailability after topical administration (Example 5, by comparison of AUCinf with Example 4) ([1]; topical 20 mg/kg Composition K, not calculated, no intravenous route in this study): about 12%
SMILES: O=C(Nc1cc(Cl)cc(Cl)c1O)c1c(O)c(Cl)cc(Cl)c1Cl [Oxyclozanide]
